Data taken from US20200291082A1, “PREVENTION AND TREATMENT OF GRAFT-VERSUS-HOST-DISEASE WITH DEFENSINS” (priority 2017, published 2020).

Assays:
[1] = tested on: CD4+CD25+ Tcell transfer induced colitis; experiment: therapeutic murine 14 weeks CD4+CD25+ Tcell transfer induced colitis model (Example 6); type: in vivo, SCID mice; details: hBD2 1 mg/kg s.c. OD, Dexamethasone 0.3 mg/kg i.p. OD, Enbrel 100 μg/mouse s.c. twice weekly
From the text: Efficacy of s.c. administration of hBD2 versus s.c. anti TNF-α (Enbrel) and intraperitoneal dexamethasone in a therapeutic, murine, 14 weeks, CD4+CD25+ Tcell transfer induced colitis model.
70 female BALB/c mice housed in groups of five per cage were allocated to 7 different treatment groups. Colitis was induced in SCID mice by transplantation of CD4+CD25+ Tcells from BALB/c mice. Lymphocytes isolated from spleen and lymph nodes from BALB/c mice were subjected to negative selection of CD4+ Tcells. Afterwards, CD4+CD25+ cells were positively isolated by binding to the beads from the CD4+ Tcell suspensions and the CD4+CD25− were collected from the supernatant. The animals were treated with hBD2, 0.1 mg/kg s.c. OD; 1 mg/kg s.c. OD or 3 mg/kg s.c. OD or with mouse anti TNFα 100 μg/mouse s.c. twice weekly or with dexamethasone 0.3 mg/kg intraperitoneally OD or PBS s.c. as vehicle from day 7 and 86 consecutive days.
Clinical assessment was based on body weight loss, stool consistency and presence of blood per rectum. The animals were sacrificed on day 95 and colon removed for assessment of weight and myeloperoxidase activity.

[2] = tested on: house dust mite model of allergic asthma; experiment: therapeutic intranasal versus oral hBD2 in murine house dust mite model of allergic asthma (Example 10); type: in vivo, BALB/c mice; details: dexamethasone 1 mg/kg BID oral; hBD2 both IN doses (0.4 mg/kg/day TID and 1.7 mg/kg/day TID)
Procedure: To determine and assess the efficacy of IN versus oral therapeutic intervention with defensins in a murine house dust mite model of allergic asthma.
Treatment regime: Female 7-10 weeks old BALB/c mice were randomly allocated into 7 study groups one day prior to study start and subcutaneously (SC) sensitized to house dust mite (100 μg HDM in 200 μL saline plus Freund's complete adjuvant in 0.9% saline). Mice were then intranasally (IN) challenged with HDM on day 14 (HDM 25 μg in 50 μL of saline). Dexamethasone was administered orally (1 mg/kg BID; 50 μL phosphate buffered saline (PBS)) on day 14. hBD2 was administered IN or orally (1.7 mg/kg TID IN; 0.4 mg/kg TID IN; 0.4 mg/kg TID orally, 50 μL phosphate buffered saline) on day 14. The initial dose was administered 60 minutes prior to challenge, and the subsequent doses approximately 6 hours apart (FIG. 5).
Airway inflammation: At 48 hours post challenge, bronchoalveolar lavage was performed washing the lungs with 3 volumes of cold PBS (0.4; 0.3 and 0.3 mL, total 1 mL). Total and differential leucocyte cell counts were determined on an automated haematological analyser Sysmex XT-2000iV.
Data are represented as airway resistance at […] methacholine and as dose responsive curves.
Lung sampling for cytokine analysis: After completion of every BAL, lungs were removed from the thorax, snap frozen in liquid nitrogen and stored frozen at −80 degrees Celsius until analysis of cytokine concentration of IL-1β, TNF-α, IL-6, IL-10 and IFNγ by ELISA.

[3] = tested on: Trinitrobenzene Sulfonic Acid induced colitis; experiment: prophylactic murine 8-day Trinitrobenzene Sulfonic Acid induced colitis model (Example 3); type: in vivo, BALB/cByJ mice; details: Prednisolone 10 mg/kg s.c. once daily; hBD2 at 0.1, 0.3 and 1 mg/kg s.c. once daily
Procedure: Anti-inflammatory effect of s.c. administration of hBD2 versus s.c. prednisolone in a prophylactic murine, 8-day Trinitrobenzene Sulfonic Acid induced colitis model.
105 male BALB/cByJ mice housed in groups of five per cage were allocated to 7 different treatment groups. Colitis was induced by intracolonic administration of trinitrobenzene sulfonic acid on day 0 under light anaesthesia resulting in significant inflammation and injury of the colonic tissue. The animals were treated with hBD2 at four different dosing levels once daily (1 mg/kg, 0.3 mg/kg, 0.1 mg/kg, and 0.03 mg/kg) or Prednisolone 10 mg/kg once daily dosed subcutaneously under the dorsal skin or PBS as vehicle for 7 days.
(§1) A disease activity index (DAI) scoring system was applied for clinical assessment (FIG. 7). The animals were sacrificed on day 10 and colon removed for histological assessment employing a histological scoring system (FIG. 8).

[4] = tested on: Dextran Sodium Sulphate induced colitis; experiment: prophylactic murine 10-day oral Dextran Sodium Sulphate induced colitis model, oral hBD2 versus oral prednisolone (Example 2); type: in vivo, C57BL/6 mice; details: versus vehicle; Prednisolone 1 mg/kg twice per day p.o.; oral hBD2 all doses
Procedure: Anti-inflammatory effect of oral administration of hBD2 versus oral prednisolone in a prophylactic murine, 10-day, oral Dextran Sodium Sulphate induced colitis model.
50 male C57BL/6 mice housed in groups of five per cage were allocated to 5 different treatment groups. All animals had their drinking water supplemented with DSS 2% for 7 days to induce colitis resulting in significant inflammation and injury of the colonic tissue. The animals were treated with oral hBD2 dosed at three different dose levels twice per day or prednisolone 1 mg/kg twice per day or PBS as vehicle for 10 days.
as §1

[5] = tested on: microbiota in diet-induced obese mice; experiment: interventional treatment of dysbiosis with defensins in diet-induced obese mice (Example 8); type: in vivo
From the text: Mice and diets. The experiment elucidates the effect of hBD2 and HD5 on the microbiota in diet-induced obese mice. A run-in period of 13 weeks where mice were fed a very HFD (60% energy from fat) preceded the intervention. Only mice meeting the criteria of a minimum of 12 gram weight gain (approximately 50% of initial bodyweight) during the run-in period were included in the final analyses. […] They were exposed to all experimental tests, but excluded from the analyses.
Treatment regimen. Before the intervention all mice were MR scanned. Cages of mice were allocated to experimental groups based on their fat mass. All subsequent measures were paired with data from the same mouse before the intervention. A LFD (low fat diet) reference group was running in parallel. As controls for the intervention 2 additional groups were included: 1 very HFD and 1 LFD. Experimental mice stayed on the very HFD during the intervention (FIG. 3). The mice were on the experimental diet for 10 weeks. They were co-housed throughout the experiment, 4 mice per cage, 3 cages per group. All tests ran over 3 days, 1 cage per group per day.
Tests. Microbial analyses were carried out to study the microbiota of the intestine.
Longitudinal 16S characterization was conducted on 4 paired samples from 60 mice, 240 samples in total. Each mouse was sampled prior to diet change, 1 week post diet change, 4 weeks post diet change and at termination, thus ensuring a thorough characterization of the faecal microbiota as a result of defensin treatment.

[6] = tested on: bacteria at the surface of the intestinal mucosa; experiment: anti microbial effect of orally administered defensins, mucin immunostaining and localization of bacteria by FISH (Example 16); type: in vivo; details: compared with mice on low fat or western diet
Procedure: Anti microbial effect of orally administered defensins (HD5 and hBD-2).
Mucus immunostaining was paired with fluorescent in situ hybridization (FISH), as previously described in order to analyze bacteria localization at the surface of the intestinal mucosa. Briefly, colonic tissues (proximal colon, 2nd cm from the cecum) without fecal material were placed in methanol-Carnoy's fixative solution (60% methanol, 30% chloroform, 10% glacial acetic acid) for a minimum of 3 hours at room temperature. Tissues were then washed in methanol 2×30 min, ethanol 2×15 min, ethanol/xylene (1:1), 15 min and xylene 2×15 min, followed by embedding in Paraffin with a vertical orientation. Five pm sections were performed and dewax by preheating at 60° C. for 10 min, followed by xylene 60° C. for 10 min, xylene for 10 min and 99.5% ethanol for 10 minutes. Hybridization step was performed at 50° C. overnight with EUB338 probe (5′-GCTGCCTCCCGTAGGAGT-3′, with a 5′ labeling using Alexa 647) diluted to a final concentration of 10 μg/mL in hybridization buffer (20 mM Tris-HCl, pH 7.4, 0.9 M NaCl, 0.1% SDS, 20% formamide). After washing 10 min in wash buffer (20 mM Tris-HCl, pH 7.4, 0.9 M NaCl) and 3×10 min in PBS, PAP pen (Sigma-Aldrich) was used to mark around the section and block solution (5% fetal bovine serum in PBS) was added for 30 min at 4° C. […]

[7] = tested on: gut microbiota in high fat diet murine model; experiment: prophylactic treatment with defensins in murine high fat diet model, gut microbiota (Example 7); type: in vivo, mice
From the text: Protection and preservation of gut microbiota by prophylactic treatment with defensins. Mice: Mice were housed in trios, 4 cages per group. Feed intake was registered daily just before lights were turned off at 6 pm. Individual mice were subjected to experimental procedures in altered order both group and cage wise. Mice were kept at room temperature under a 12-hour light/dark cycle at SPF standard conditions. Diets: For dosing, the average weight was estimated to be 25 grams per mouse. Mice eat approximately 3 grams of feed per mouse per day. Treatment regime: Mice were fed either a high fat diet (HFD) or a low fat (LF) control diet. The HFD contained 4 subgroups; 1 hBD2, 1 HD5, 1 hBD2/HD5 and 1 standard HFD without supplementation of defensins (FIG. 3). Defensin concentration was 1,2 mg hBD2 per kg mouse per day. HD5 was given in equimolar concentration to hBD2. […] Microbial analyses were carried out to study the microbiota of the intestine. Longitudinal 16S characterization was conducted on 4 paired samples from 60 mice, 240 samples in total. Each mouse was sampled prior to diet change, 1 week post diet change, 4 weeks post diet change and at termination, thus ensuring a thorough characterization of the faecal microbiota as a result of defensin treatment.

[8] = tested on: acute graft versus host disease following stem cell transplantation; experiment: prophylactic oral HD5 or hBD-2 in murine model of acute graft versus host disease (Example 15); type: in vivo, BALB/c mice
Procedure: To determine and assess the efficacy of prophylactic treatment with oral HD5 in a murine model of acute graft versus host disease following stem cell transplantation.
Treatment regime: 22 female BALB/c mice were irradiated with 4.5 Gy (2×498 sec) at intervals of at least 4 hours on day 0. Bone marrow was harvested: hind limbs harvested from 2 female WT C57BL/6 mice aseptically. Skeletal muscle was removed and epiphysis cut away. Lumen of bone flushed with PBS and cells pelleted and taken up. Harvest of T-cells: spleens from 2 female WT C57BL/6 mice were meshed through a […] cell strainer into a PBS filled dish. Cells were taken up in PBS and transferred into a 50 mL falcon tube and spun down. Cells were taken up in 1 mL PBS and 20 μL of CD4 microbead+20 μL CD8 microbeads per spleen added for incubation for 20 min at 4 degrees C. Cells were washed with PBS and applied to MACS separation in order to positively select CD4+ and CD8+ cells. Positively selected T-cells were counted and taken up. Transplantation: directly after the second irradiation, all WT BALB/c recipient mice were injected with 5×1.000.000 BM cells (50 μL) i.v. into the retroorbital venous plexus under isoflurane anesthesia. 22 BALB/c mice were treated with 1.2 mg of HD5/kg BW/day; 1.2 mg of hBD-2/kg BW/day or 100 μL of PBS per day vial oral gavage from day 0-10.
Survival was monitored for 60 days.

[9] = HFD plus HD5, after dietary intervention

Enbrel [reference compound]
myeloperoxidase activity ([1]; colon, day 95): statistically significant and similar effect | clinical score (body weight loss, stool consistency, presence of blood per rectum) [1]: statistically significant and similar effect on clinical score | colon weight ([1]; day 95): statistically significant and similar effect on colon weight

C[C@@H]1C[C@H]2[C@@H]3CCC4=CC(=O)C=C[C@]4(C)[C@@]3(F)[C@@H](O)C[C@]2(C)[C@@]1(O)C(=O)CO [Dexamethasone, reference compound]
macrophage counts in BALF [2]: failed to inhibit | neutrophil counts in BALF [2]: failed to inhibit

C[C@]12C=CC(=O)C=C1CC[C@@H]1[C@@H]2[C@@H](O)C[C@@]2(C)[C@H]1CC[C@]2(O)C(=O)CO [Prednisolone, reference compound]
histological score [3]: highly statistically significant clinical effect on histological score | histological score [4]: statistically significant effect on histological score

human intestinal alpha defensin 5 (ATCYCRTGRCATRESLSGVCEISGRLYRLCCR; listed as Homo sapiens) [HD5]
fat percentage ([5]; HFD plus HD5, 4 weeks after dietary change, versus HFD control): significantly lower fat percentage | fat percentage [5, 9]: tendency of decreasing fat percentage | weight gain [5, 9]: gained significantly less weight than the HFD control | abundance of Alloprevotella ([5]; colon): increased the abundance of Alloprevotella statistically significantly | relative abundance of Bifidobacteriaceae ([5]; small intestine): trend towards HD5 increasing the abundance | lysis zone, distance between intestinal wall and bacterial population [6]: profound effect on the distance | microbial presence and abundance (unifrac analysis) ([7]; prophylactic oral defensins in high fat diet): affected primarily the microbial abundance | abundance of Allobaculum ([7]; small intestine, prophylaxis with HD5): statistically significant increase of abundance of Allobaculum | mortality ([8]; FIG. 58, oral treatment for 10 days from day of stem cell transplantation): significant reduction of mortality | treated animals that had died by day 60 ([8]; oral 1.2 mg/kg/day day 0-10, six out of eight PBS mice died): 2 out of 8
